“And” between values parts separate entries of the source, which are not always exact repeats. Identical values can stand only once. Counter-ions that a name gives are not always drawn. Like-named read-outs stand apart in the source and are kept apart here.
Legend:
HSA = settings: cited from earlier work
[1] = parameters: method as in PMID 8289200; settings: in the presence of HSA; cited from earlier work
[2] = tested on: SK-LMS-1 xenograft tumors; type: in vivo, SCID mice; parameters: Estimate of tumor volume difference vs SPESN38-8 / Estimate of tumor volume difference vs Vehicle: unit not given here; settings: for Tumor volume, Mean / Tumor volume, Median: in mm³ (unit assumed); for Tumor volume change from Day 0, Mean / Tumor volume change from Day 0, Median: volume minus day 0 volume
From the text: SK-LMS-1 cell line (HTB-88) was purchased from ATCC. […] Equal number (12) of female and male mice were used in this experiment. […] The intended schedule for drug or vehicle treatment was weekly for 3 doses.
A mixed linear regression model was made with tumor volume as the outcome on day 2, 6, and 9. The model tested for group differences adjusted for time, day 0 volume, and sex. There was a within animal correlation modeled using a random intercept. […] The black color columns are within group at between days, the red columns are between group at each day.

SK-LMS-1 = SK-LMS-1 cell line; cited from earlier work
[3] = Membrane dialysis SN38 release kinetics; type: physicochemical; settings: in 7 h; 0.1 M NaHCO3 buffer, pH 8.6
[4] = Water solubility and solution stability; type: physicochemical
From the text: Following the formation of SPESN38 complexes, the solution was lyophilized to yield yellowish powder.

cancer cells = tested on: cancer cells; parameters: method as in PMID 11489791, PMID 1651156; settings: cited from earlier work
[5] = cited from earlier work
[6] = Irinotecan IV dose tolerability; type: in vivo, mouse; settings: female, mouse, in vivo; SCID mice, via IV
Experimental: (§1) After growing in Eagle's Minimum Essential, HCT-116 cells were harvested by trypsinization and washed twice with PBS. HCT-116 cells (2 × 10^6 per injection) were suspended in 200 µL of a 1:1 solution of ice-cold PBS and Matrigel (Corning Incorporated, Corning, NY) solution. […] After the tumors grew to 800–1200 mm^3, they were isolated, and approximately 50 mg of non-necrotic tumor masses were subcutaneously implanted into the flank area of individual female SCID mice. […] Other doses at 75 and 50 mg/kg were tried on healthy CD-1 mice. […] Tumor volume (TV) and BW were measured three times per week or daily depending on the condition of the mouse. TV was calculated using the formula: v = 0.5 (L x W^2). Progression at the endpoint was a tumor size with diameter ≥ 20 mm or a moribund condition.

SCID mice and CD-1 mice = experiment: Irinotecan IV dose tolerability; type: in vivo, mouse
Experimental: as §1

[7] = parameters: method as in earlier work; settings: irinotecan at 200 mg/kg, mice, cited from earlier work
[8] = tested on: HCT-116 CRC xenograft tumors; experiment: HCT-116 model efficacy study; settings: for tumor growth inhibition (TGI) on Day 10: IV (irinotecan 50 mg/kg, SPESN38-5 55 mg/kg), vs control group, female SCID mice
Experimental: as §1

[9] = DOX 5 mg/kg qwk x 2, SPESN38-8 IV 33 mg/kg qwk x 3
[10] = Day 2, mixed linear regression model, Tukey-Kramer pairwise test
[11] = Day 6, mixed linear regression model, Tukey-Kramer pairwise test
[12] = IV, DOX 5 mg/kg, SPESN38-8 33 mg/kg, relative to control group
[13] = mixed linear regression model, Tukey-Kramer pairwise test

CC[C@@]1(O)C(=O)OCc2c1cc1n(c2=O)Cc2cc3ccccc3nc2-1 [CPT, Camptothecin]
fold higher HSA affinity for the C form over the L form (HSA): 157 fold
L form at the equilibrium [1]: < 0.5%

COc1cccc2c1C(=O)c1c(O)c3c(c(O)c1C2=O)C[C@@](O)(C(=O)CO)C[C@@H]3O[C@H]1C[C@H](N)[C@H](O)[C@H](C)O1 [DOX, doxorubicin]
% Tumor volume change at Day 9 [2, 9]: 142% and 142.4%
Mean Tumor volume at Day 9 [2, 9]: 843.5 mm^3
Tumor weight on ending day, Mean ([2]; DOX Day 9, SPESN38-8 Day 21): 0.73 g
Tumor weight on ending day, Median ([2]; DOX Day 9, SPESN38-8 Day 21): 0.71 g
Initial mean Tumor volume ([2]; Day 0, DOX 5 mg/kg qwk x 2, SPESN38-8 IV 33 mg/kg qwk x 3): 334.2 mm^3
Tumor volume, Mean ([2]; Day 0): 334.20
Tumor volume, Median ([2]; Day 0): 343.40
Tumor volume, Mean ([2]; Day 2): 347.68
Tumor volume, Median ([2]; Day 2): 355.78
Estimate of tumor volume difference vs SPESN38-8 [2, 10]: 42.5383
Estimate of tumor volume difference vs Vehicle [2, 10]: -178.73
Tumor volume change from Day 0, Mean ([2]; Day 2): 13.48
Tumor volume change from Day 0, Median ([2]; Day 2): 14.71
Tumor volume, Mean ([2]; Day 6): 495.42
Tumor volume, Median ([2]; Day 6): 464.84
Estimate of tumor volume difference vs SPESN38-8 [2, 11]: 132.53
Estimate of tumor volume difference vs Vehicle [2, 11]: -258.70
Tumor volume change from Day 0, Mean ([2]; Day 6): 161.22
Tumor volume change from Day 0, Median ([2]; Day 6): 138.34
Tumor volume, Mean ([2]; Day 9): 843.52
Tumor volume, Median ([2]; Day 9): 810.34
Estimate of tumor volume difference vs SPESN38-8 ([2]; Day 9, mixed linear regression model, Tukey-Kramer pairwise test): 538.49
Tumor volume change from Day 0, Mean ([2]; Day 9): 509.32
Tumor volume change from Day 0, Median ([2]; Day 9): 472.65
TGI on Day 6 [2, 12]: 27% and 26.9%
TGI on Day 9 [2, 12]: 25% and 25.3%
Estimate of tumor volume difference within group, Day 2 vs Day 6 [2, 13]: -147.74
Estimate of tumor volume difference within group, Day 2 vs Day 9 [2, 13]: -495.84
Estimate of tumor volume difference within group, Day 6 vs Day 9 [2, 13]: -348.11
BW loss after 2 doses ([2]; mouse, in vivo): > 20%
IC50 (SK-LMS-1): 490 nM

CCc1c2c(nc3ccc(O)cc13)-c1cc3c(c(=O)n1C2)COC(=O)[C@]3(O)CC [SN38 salt]
SN38 out of the membrane tubing [3]: > 90%
solution stability ([4]; under the same conditions as SPESN38 complexes): neither SN38 salt nor SN38 salt-HSA mixture is stable

CCc1c2c(nc3ccc(O)cc13)-c1cc3c(c(=O)n1C2)COC(=O)[C@]3(O)CC [SN38, 7-ethyl-10-hydroxy camptothecin]
water solubility [4]: very low solubility in water
times more cytotoxic than irinotecan (cancer cells): 100–1000 times

CCc1c2c(nc3ccc(OC(=O)N4CCC(N5CCCCC5)CC4)cc13)-c1cc3c(c(=O)n1C2)COC(=O)[C@]3(O)CC [irinotecan]
fraction of irinotecan transformed in vivo into SN38 ([5]; human setting): 2–8%
drug excreted as intact irinotecan ([5]; in humans): 55%
MTD [6]: 50 mg/kg
Tolerability (SCID mice and CD-1 mice; 50 mg/kg IV, 2 healthy CD-1 mice): safe
Mortality (SCID mice and CD-1 mice; 75 mg/kg IV, healthy CD-1 mice): died instantly
Mortality (SCID mice and CD-1 mice; 100 mg/kg IV, 2 SCID mice bearing HCT-116): both died immediately
AUC0-∞ ([7]; moiety Free SN38): 9,940 ng x h/mL
Cmax ([7]; moiety Free SN38): 1,125 ng/mL
Tmax ([7]; moiety Free SN38): 31.8 min
AUC0-∞ ([7]; moiety Irinotecan): 16,348 ng x h/mL
Cmax ([7]; moiety Irinotecan): 6,571 ng/mL
Tmax ([7]; moiety Irinotecan): 17.4 min
AUC0-∞ ([7]; moiety SN38-G): 15,493 ng x h/mL
Cmax ([7]; moiety SN38-G): 2,620 ng/mL
Tmax ([7]; moiety SN38-G): 36 min
tumor growth inhibition (TGI) on Day 10 [8]: 82%
tumor growth inhibition (TGI) on Day 10 ([8]; listed as Irinotecan): 82.3%
Tumor weight Difference vs SPESN38-5 PO on Day 10 ([8]; IV groups on Day 21): -0.6587
Tumor weight Difference vs Vehicle on Day 10 ([8]; IV groups on Day 21): -0.9605
Mean % BW change at ending day ([8]; normalized BW, ending Day 21, IV qwk x 3 (irinotecan 50 mg/kg, SPESN38-5 55 mg/kg)): 90.5%
